Test results taken from ChEMBL document CHEMBL2203185, “Development of sub-nanomolar dipeptidic ligands of neuropeptide FF receptors” (Bioorg Med Chem Lett, 2012).

Experiments:
Format in all cases: cell-based
[1] = molecular target: T1, Neuropeptide FF receptor 2 (Homo sapiens, UniProt Q9Y5X5); assay: Displacement of [3H]FFRF-NH2 from human flag-tagged NPFF2 receptor expressed in CHO cells at 500 nM by scintillation counting
[2] = molecular target: T1, Neuropeptide FF receptor 2; assay: Displacement of [3H]FFRF-NH2 from human flag-tagged NPFF2 receptor expressed in CHO cells at 5 uM by scintillation counting
[3] = molecular target: T2, Neuropeptide FF receptor 1 (Homo sapiens, UniProt Q9GZQ6); assay: Displacement of [3H]FFRF-NH2 from human flag-tagged NPFF1 receptor expressed in CHO cells at 500 nM by scintillation counting
[4] = molecular target: T2, Neuropeptide FF receptor 1; assay: Displacement of [3H]FFRF-NH2 from human flag-tagged NPFF1 receptor expressed in CHO cells at 5 uM by scintillation counting

T2 sequence (Q9GZQ6 whole entry): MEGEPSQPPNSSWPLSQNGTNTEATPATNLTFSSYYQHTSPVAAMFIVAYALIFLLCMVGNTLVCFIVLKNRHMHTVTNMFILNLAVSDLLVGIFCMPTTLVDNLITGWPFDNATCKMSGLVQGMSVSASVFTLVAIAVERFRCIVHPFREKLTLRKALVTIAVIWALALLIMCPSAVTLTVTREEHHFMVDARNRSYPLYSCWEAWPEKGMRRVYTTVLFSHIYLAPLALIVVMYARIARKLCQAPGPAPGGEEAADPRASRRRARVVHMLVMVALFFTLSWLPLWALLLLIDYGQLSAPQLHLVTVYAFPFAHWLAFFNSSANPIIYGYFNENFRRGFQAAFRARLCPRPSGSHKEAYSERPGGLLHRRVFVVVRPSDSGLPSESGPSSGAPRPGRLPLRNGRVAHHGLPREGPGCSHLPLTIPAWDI
T1 sequence (Q9Y5X5 whole entry): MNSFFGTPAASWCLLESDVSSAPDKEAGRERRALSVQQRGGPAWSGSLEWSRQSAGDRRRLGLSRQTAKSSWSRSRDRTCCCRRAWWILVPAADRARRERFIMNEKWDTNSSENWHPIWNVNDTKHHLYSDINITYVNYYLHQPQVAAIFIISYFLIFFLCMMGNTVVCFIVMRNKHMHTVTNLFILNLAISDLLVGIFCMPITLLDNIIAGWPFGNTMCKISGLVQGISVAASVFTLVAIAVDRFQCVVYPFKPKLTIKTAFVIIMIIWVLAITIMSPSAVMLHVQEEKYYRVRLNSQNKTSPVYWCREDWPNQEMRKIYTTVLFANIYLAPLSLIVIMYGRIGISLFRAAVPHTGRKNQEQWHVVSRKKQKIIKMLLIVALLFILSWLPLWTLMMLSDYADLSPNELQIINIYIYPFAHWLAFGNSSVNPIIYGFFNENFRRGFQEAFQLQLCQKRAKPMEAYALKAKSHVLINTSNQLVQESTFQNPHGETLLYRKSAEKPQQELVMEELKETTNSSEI

| inhibition [1] [%] | inhibition [2] [%] | inhibition [3] [%] | inhibition [4] [%] | Compound |
| --- | --- | --- | --- | --- |
| 0 | 15 | 20 | 43 | N=C(N)NCCC[C@H](NC(=O)c1ccc(-c2ccccc2)cc1)C(=O)N[C@@H](Cc1ccccc1)C(N)=O |
| 19 | 50 | 42 | 89 | COc1cccc(CC(=O)N[C@@H](CCCNC(=N)N)C(=O)N[C@@H](Cc2ccccc2)C(N)=O)c1 |
| 16 | 40 | 37 | 89 | N=C(N)NCCC[C@H](NC(=O)CC(c1ccccc1)c1ccccc1)C(=O)N[C@@H](Cc1ccccc1)C(N)=O |
| 0 | 27 | 13 | 65 | COc1ccc(C(=O)N[C@@H](CCCNC(=N)N)C(=O)N[C@@H](Cc2ccccc2)C(N)=O)cc1OC |
| 10 | 19 | 40 | 96 | COc1ccccc1C(=O)N[C@@H](CCCNC(=N)N)C(=O)N[C@@H](Cc1ccccc1)C(N)=O |
| 14 | 54 | 19 | 77 | COc1ccc(C(=O)N[C@@H](CCCNC(=N)N)C(=O)N[C@@H](Cc2ccccc2)C(N)=O)cn1 |
| 14 | 21 | 18 | 52 | COc1ccc(CC(=O)N[C@@H](CCCNC(=N)N)C(=O)N[C@@H](Cc2ccccc2)C(N)=O)cc1 |
| 0 | 11 | 30 | 85 | N=C(N)NCCC[C@H](NC(=O)c1c(Cl)cccc1Cl)C(=O)N[C@@H](Cc1ccccc1)C(N)=O |
| 14 | 31 | 43 | 94 | CC(C)(C)c1ccc(C(=O)N[C@@H](CCCNC(=N)N)C(=O)N[C@@H](Cc2ccccc2)C(N)=O)cc1 |
| 8 | 70 | 85 | 92 | N=C(N)NCCC[C@@H](NC(=O)c1ccccc1-c1ccccc1)C(=O)N[C@H](Cc1ccccc1)C(N)=O |
| 0 | 26 | 32 | 76 | N=C(N)NCCC[C@H](NC(=O)Cc1ccc(O)cc1)C(=O)N[C@@H](Cc1ccccc1)C(N)=O |
| 0 | 28 | 8 | 70 | COc1ccc(CC(=O)N[C@@H](CCCNC(=N)N)C(=O)N[C@@H](Cc2ccccc2)C(N)=O)cc1OC |
| 15 | 47 | 21 | 80 | N=C(N)NCCC[C@H](NC(=O)/C=C/c1cccc(O)c1)C(=O)N[C@@H](Cc1ccccc1)C(N)=O |
| 0 | 28 | 18 | 56 | N=C(N)NCCC[C@H](NC(=O)c1ccc(O)c(O)c1)C(=O)N[C@@H](Cc1ccccc1)C(N)=O |
| 16 | 37 | 27 | 92 | N=C(N)NCCC[C@H](NC(=O)Cc1ccccc1O)C(=O)N[C@@H](Cc1ccccc1)C(N)=O |
| 4 | 43 | 14 | 68 | N=C(N)NCCC[C@H](NC(=O)c1ccc(C(=O)c2ccccc2)cc1)C(=O)N[C@@H](Cc1ccccc1)C(N)=O |
| 4 | 34 | 19 | 77 | COc1ccc(/C=C/C(=O)N[C@@H](CCCNC(=N)N)C(=O)N[C@@H](Cc2ccccc2)C(N)=O)cc1OC |
| 24 | 47 | 22 | 79 | N=C(N)NCCC[C@H](NC(=O)c1cnc2ccccc2c1)C(=O)N[C@@H](Cc1ccccc1)C(N)=O |
| 1 | 21 | 18 | 71 | COc1ccc(C(=O)N[C@@H](CCCNC(=N)N)C(=O)N[C@@H](Cc2ccccc2)C(N)=O)cc1 |
| 11 | 57 | 57 | 100 | N=C(N)NCCC[C@@H](NC(=O)C12CC3CC(CC(C3)C1)C2)C(=O)N[C@H](Cc1ccccc1)C(N)=O |
| 13 | 33 | 44 | 100 | CCCCCCCCCCC(=O)N[C@@H](CCCNC(=N)N)C(=O)N[C@@H](Cc1ccccc1)C(N)=O |
| 23 | 56 | 27 | 81 | N=C(N)NCCC[C@H](NC(=O)c1ccc2ccccc2c1)C(=O)N[C@@H](Cc1ccccc1)C(N)=O |
| 12 | 49 | 35 | 98 | N=C(N)NCCC[C@H](NC(=O)c1nc2ccccc2[nH]1)C(=O)N[C@@H](Cc1ccccc1)C(N)=O |
| 15 | 30 | 35 | 73 | N=C(N)NCCC[C@@H](NC(=O)c1ccccc1)C(=O)N[C@H](Cc1ccccc1)C(N)=O |

| inhibition [1] [%] | inhibition [2] [%] | inhibition [3] [%] | inhibition [4] [%] | Compound |
| --- | --- | --- | --- | --- |
| 21 | 64 | 35 | 100 | COc1ccc(/C=C/C(=O)N[C@@H](CCCNC(=N)N)C(=O)N[C@@H](Cc2ccccc2)C(N)=O)cc1 |
| 0 | 33 | 34 | 88 | N=C(N)NCCC[C@H](NC(=O)C(c1ccccc1)c1ccccc1)C(=O)N[C@@H](Cc1ccccc1)C(N)=O |
| 9 | 63 | 62 | 100 | N=C(N)NCCC[C@H](NC(=O)Cc1ccc(Cl)cc1)C(=O)N[C@@H](Cc1ccccc1)C(N)=O |
| 4 | 30 | 43 | 78 | N=C(N)NCCC[C@@H](NC(=O)Cc1ccccc1)C(=O)N[C@H](Cc1ccccc1)C(N)=O |
| 43 | 57 | 81 | 92 | N=C(N)NCCC[C@@H](NC(=O)c1ccc(-c2ccccc2)cc1)C(=O)N[C@@H](Cc1ccccc1)C(N)=O |
| 2 | 38 | 0 | 75 | N=C(N)NCCC[C@H](NC(=O)c1ccc(Cl)cc1Cl)C(=O)N[C@@H](Cc1ccccc1)C(N)=O |
| 16 | 60 | 47 | 83 | N=C(N)NCCC[C@H](NC(=O)Cc1ccccc1Cl)C(=O)N[C@@H](Cc1ccccc1)C(N)=O |
| 6 | 50 | 40 | 83 | N=C(N)NCCC[C@@H](NC(=O)c1ccc(-c2ccccc2)cc1)C(=O)N[C@H](Cc1ccccc1)C(N)=O |
| 0 | 20 | 29 | 34 | N=C(N)NCCC[C@H](NC(=O)CCC(=O)O)C(=O)N[C@@H](Cc1ccccc1)C(N)=O |
| 17 | 38 | 0 | 61 | N=C(N)NCCC[C@H](NC(=O)Cc1ccc(O)c(O)c1)C(=O)N[C@@H](Cc1ccccc1)C(N)=O |
| 40 | 85 | 60 | 97 | N=C(N)NCCC[C@H](NC(=O)C12CC3CC(CC(C3)C1)C2)C(=O)N[C@@H](Cc1ccccc1)C(N)=O |
| 6 | 27 | 3 | 41 | N=C(N)NCCC[C@H](NC(=O)/C=C/c1cccnc1)C(=O)N[C@@H](Cc1ccccc1)C(N)=O |
| 31 | 59 | 100 | 100 | N=C(N)NCCC[C@H](NC(=O)CCN1c2ccccc2Sc2ccccc21)C(=O)N[C@@H](Cc1ccccc1)C(N)=O |
| 17 | 77 | 25 | 82 | N=C(N)NCCC[C@H](NC(=O)/C=C/c1ccccc1O)C(=O)N[C@@H](Cc1ccccc1)C(N)=O |
| 24 | 46 | 3 | 58 | N=C(N)NCCC[C@H](NC(=O)/C=C/c1ccccc1)C(=O)N[C@@H](Cc1ccccc1)C(N)=O |
| 65 | 72 | 85 | 99 | N=C(N)NCCC[C@@H](NC(=O)c1cccc(-c2ccccc2)c1)C(=O)N[C@@H](Cc1ccccc1)C(N)=O |
| 22 | 30 | 96 | 100 | N=C(N)NCCC[C@H](NC(=O)c1ccccc1-c1ccccc1)C(=O)N[C@@H](Cc1ccccc1)C(N)=O |
| 30 | 40 | 68 | 87 | N=C(N)NCCC[C@@H](NC(=O)Cc1ccccc1)C(=O)N[C@@H](Cc1ccccc1)C(N)=O |
| 0 | 40 | 15 | 78 | N=C(N)NCCC[C@H](NC(=O)c1cccc(C(=O)c2ccccc2)c1)C(=O)N[C@@H](Cc1ccccc1)C(N)=O |
| 0 | 18 | 1 | 22 | N=C(N)NCCC[C@H](NC(=O)/C=C/c1cnc[nH]1)C(=O)N[C@@H](Cc1ccccc1)C(N)=O |
| 9 | 23 | 11 | 64 | N=C(N)NCCC[C@H](NC(=O)c1cccnc1)C(=O)N[C@@H](Cc1ccccc1)C(N)=O |
| 0 | 20 | 56 | 84 | N=C(N)NCCC[C@H](NC(=O)c1cccc(Cl)c1)C(=O)N[C@@H](Cc1ccccc1)C(N)=O |
| 37 | 82 | 40 | 90 | N=C(N)NCCC[C@H](NC(=O)c1cccc2ccccc12)C(=O)N[C@@H](Cc1ccccc1)C(N)=O |
